Reference: patent US11712434B2, “Compound having anti-cancer effect, and preparation method therefor and use thereof” (3D MEDICINES (BEIJING) CO., LTD., priority 2016, dated 2023)

Assays:
Assay in all cases: Cell proliferation assay (Alamar Blue)
Assay type in all cases: cell-based
JHH5 = JHH5 liver cancer cell line, 6 days culture
Description: (§1) 1. Instruments and Materials • Thermo 311 CO2 incubator; Haier biosafety cabinet; Molecular Devices microplate reader; Xiangyi brand L530 desktop low speed centrifuge; Olympus IX51 inverted fluorescence microscope, DMEM, RPMI 1640, MEM, DMEM/F12 1:1 medium, Fetal bovine serum, 0.25% trypsin solution, phosphate buffer (Thermo Fisher Shanghai Co., Ltd.); sigma dimethyl sulfoxide (DMSO), resazurin; 54 commercial tumor cell lines (including 26 liver cancer cell lines). Experimental drugs: compounds 1-12 and active drug Linifanib; chemotherapeutic drug Doxorubicin (HY-15142; Shanghai Qianyuan Biomedical Technology Co., Ltd.).
(§2) 2. Experimental Methods • 2.1 Cultivation of Different Cell Lines • 54 cell lines were cultured in a culture medium containing fetal bovine serum and placed in a 5% CO2 incubator at 37° C. for incubation. The cells were all grown in an adherent state, and the growth was observed under an inverted microscope, and subculture was performed when the cell confluence rate reached 80%-90%. The proportion and quantity of passage were determined by experimental needs. The ratio of subculture of this cell line was generally 1:2^˜1:3. • 2.2 Inhibition Effect on the Proliferation of Different Tumor Cell Lines • Cell test: 54 cell lines in logarithmic growth phase were inoculated in 96-well culture plates at 500^˜1×10^4/well (the optimal seeding density of each cell line was determined in pre-experiment), After incubating at 37° C. for 4 h in a 5% CO2 humidification incubator, added 10 μL of compounds 1-12 or Linifanib to each well, and tested 9 drug concentration gradients for each compound (diluted from the highest concentration of the test by 3.16 times). The solubility of each compound was different at a starting concentration of 100 or 30 μM, respectively. The QC reference compound Doxorubicin was added simultaneously to each cell line test, and the final drug concentrations were 10, 3.16, 1, 0.31, 0.1, 0.03, 0.01, 0.003, and 0.001 μM, respectively. In addition, a positive control group (100% inhibition) and a negative control group (0% inhibition) were set at the same time. The drug group was repeated for 2 wells per concentration, and the positive control group and the negative control group were repeated for 6 wells. After the culture was continued for 6 days in the incubator, AlamarBlue test operation was followed; • AlamarBlue test procedure: Incubated with 10 μL of AlamarBlue reagent per well for 1-4 h, shook for 1-2 min, MD microplate reader EX: 560 nm, EM: 590 nm wavelength to measure fluorescence, recorded the results, calculated the cell inhibition rate of the compound of the invention. Cell inhibition rate (%)=(A0% inhibition−A administration)/(A0% inhibition−A100% inhibition)×100%, and then using the method of nonlinear regression using GraphPad Prism 5.0 or MATILAB software (usually using four parameters) to graph and obtain a drug dose response curve to obtain an IC50 value of the compound of the present invention acting on a cancer cell line.

JHH7 = JHH7 liver cancer cell line, 6 days culture
Description: as §1, §2

AN3CA = AN3CA tumor cell line, 6 days culture
Description: as §1, §2

MDA-MB-435S = MDA-MB-435S tumor cell line, 6 days culture
Description: as §1, §2

HT55 = HT55 tumor cell line, 6 days culture
Description: as §1, §2

MDA-MB-231 = MDA-MB-231 tumor cell line, 6 days culture
Description: as §1, §2

JHH1 = JHH1 liver cancer cell line, 6 days culture
Description: as §1, §2

JHH2 = JHH2 liver cancer cell line, 6 days culture
Description: as §1, §2

HUH6 = HUH6 liver cancer cell line, 6 days culture
Description: as §1, §2

TE-15 = TE-15 tumor cell line, 6 days culture
Description: as §1, §2

MG63 = MG63 tumor cell line, 6 days culture
Description: as §1, §2

NCI-H2170 = NCI-H2170 tumor cell line, 6 days culture
Description: as §1, §2

SNU423 = SNU423 liver cancer cell line, 6 days culture
Description: as §1, §2

TE-6 = TE-6 tumor cell line, 6 days culture
Description: as §1, §2

SK-HEP-1 = SK-HEP-1 liver cancer cell line, 6 days culture
Description: as §1, §2

SNU475 = SNU475 liver cancer cell line, 6 days culture
Description: as §1, §2

HT1080 = HT1080 tumor cell line, 6 days culture
Description: as §1, §2

HLE = HLE liver cancer cell line, 6 days culture
Description: as §1, §2

SNU449 = SNU449 liver cancer cell line, 6 days culture
Description: as §1, §2

T.T = T.T tumor cell line, 6 days culture
Description: as §1, §2

HuTu80 = HuTu80 tumor cell line, 6 days culture
Description: as §1, §2

SNU761 = SNU761 liver cancer cell line, 6 days culture
Description: as §1, §2

KM12 = KM12 tumor cell line, 6 days culture
Description: as §1, §2

SNU354 = SNU354 liver cancer cell line, 6 days culture
Description: as §1, §2

K562 = K562 tumor cell line, 6 days culture
Description: as §1, §2

SNU886 = SNU886 liver cancer cell line, 6 days culture
Description: as §1, §2

JHH4 = JHH4 liver cancer cell line, 6 days culture
Description: as §1, §2

DLD1 = DLD1 tumor cell line, 6 days culture
Description: as §1, §2

SMILES: Cc1ccc(F)c(NC(=O)Nc2ccc(-c3cccc4[nH]nc(NC(=O)CCCCCNC(=O)C[C@H](N)C(=O)N[C@@H](CCC(=O)O)C(=O)O)c34)cc2)c1 [Compound 4]
- IC50 (JHH5): > 100 µM
- IC50 (JHH7): > 100 µM
- IC50 (AN3CA): 24.9 µM
- IC50 (MDA-MB-435S): > 100 µM
- IC50 (HT55): > 100 µM
- IC50 (MDA-MB-231): > 100 µM
- IC50 (JHH1): > 100 µM
- IC50 (JHH2): > 100 µM
- IC50 (HUH6): > 100 µM
- IC50 (TE-15): > 100 µM
- IC50 (MG63): > 100 µM
- IC50 (NCI-H2170): > 100 µM
- IC50 (SNU423): > 100 µM
- IC50 (TE-6): > 100 µM
- IC50 (SK-HEP-1): > 100 µM
- IC50 (SNU475): > 100 µM
- IC50 (HT1080): > 100 µM
- IC50 (HLE): > 100 µM
- IC50 (SNU449): > 100 µM
- IC50 (T.T): > 100 µM
- IC50 (HuTu80): 75.4 µM
- IC50 (SNU761): > 100 µM
- IC50 (KM12): > 100 µM
- IC50 (SNU354): > 100 µM
- IC50 (K562): > 100 µM
- IC50 (SNU886): > 100 µM
- IC50 (JHH4): > 100 µM
- IC50 (DLD1): > 100 µM

SMILES: Cc1ccc(F)c(NC(=O)Nc2ccc(-c3cccc4[nH]nc(NC(=O)CCCCCNC(=O)C[C@H](N)C(=O)N[C@@H](CCC(=O)N[C@@H](CCC(=O)N[C@@H](CCC(=O)N[C@@H](CCC(=O)O)C(=O)O)C(=O)O)C(=O)O)C(=O)O)c34)cc2)c1 [Compound 5]
- IC50 (JHH5; 144 h): > 100 µM
- IC50 (JHH7; 144 h): > 100 µM
- IC50 (AN3CA; Homo sapiens, AN3-CA, 144 h): 41.4 µM
- IC50 (MDA-MB-435S; Homo sapiens, 144 h): > 100 µM
- IC50 (HT55; Homo sapiens, 144 h): > 100 µM
- IC50 (MDA-MB-231; Homo sapiens, 144 h): > 100 µM
- IC50 (JHH1; 144 h): > 100 µM
- IC50 (JHH2; JHH-2, 144 h): > 100 µM
- IC50 (HUH6; Homo sapiens, HuH-6, 144 h): > 100 µM
- IC50 (TE-15; Homo sapiens, 144 h): > 100 µM
- IC50 (MG63; Homo sapiens, MG-63, 144 h): > 100 µM
- IC50 (NCI-H2170; Homo sapiens, 144 h): > 100 µM
- IC50 (SNU423; Homo sapiens, SNU-423, 144 h): > 100 µM
- IC50 (TE-6; Homo sapiens, 144 h): > 100 µM
- IC50 (SK-HEP-1; Homo sapiens, SK-HEP1, 144 h): > 100 µM
- IC50 (SNU475; Homo sapiens, SNU-475, 144 h): > 100 µM
- IC50 (HT1080; Homo sapiens, HT-1080, 144 h): > 100 µM
- IC50 (HLE; Homo sapiens, 144 h): > 100 µM
- IC50 (SNU449; Homo sapiens, SNU-449, 144 h): > 100 µM
- IC50 (T.T; Homo sapiens, TT, 144 h): > 100 µM
- IC50 (HuTu80; Homo sapiens, 144 h): > 100 µM
- IC50 (SNU761; 144 h): > 100 µM
- IC50 (KM12; Homo sapiens, 144 h): > 100 µM
- IC50 (SNU354; Homo sapiens, SNU-354, 144 h): > 100 µM
- IC50 (K562; Homo sapiens, 144 h): > 100 µM
- IC50 (SNU886; SNU-886, 144 h): > 100 µM
- IC50 (JHH4; JHH-4, 144 h): > 100 µM
- IC50 (DLD1; Homo sapiens, DLD-1, 144 h): > 100 µM

SMILES: Cc1ccc(F)c(NC(=O)Nc2ccc(-c3cccc4[nH]nc(NC(=O)CCCCCCCCCCCNC(=O)C[C@H](N)C(=O)N[C@@H](CCC(=O)O)C(=O)O)c34)cc2)c1 [Compound 7]
- IC50 (JHH5): > 100 µM
- IC50 (JHH7): 63.4 µM
- IC50 (AN3CA): 3.84 µM
- IC50 (MDA-MB-435S): > 100 µM
- IC50 (HT55): > 100 µM
- IC50 (MDA-MB-231): > 100 µM
- IC50 (JHH1): > 100 µM
- IC50 (JHH2): > 100 µM
- IC50 (HUH6): > 100 µM
- IC50 (TE-15): > 100 µM
- IC50 (MG63): > 100 µM
- IC50 (NCI-H2170): 48 µM
- IC50 (SNU423): > 100 µM
- IC50 (TE-6): > 100 µM
- IC50 (SK-HEP-1): > 100 µM
- IC50 (SNU475): > 100 µM
- IC50 (HT1080): > 100 µM
- IC50 (HLE): 88.3 µM
- IC50 (SNU449): > 100 µM
- IC50 (T.T): > 100 µM
- IC50 (HuTu80): 27.7 µM
- IC50 (SNU761): > 100 µM
- IC50 (KM12): 79.1 µM
- IC50 (SNU354): > 100 µM
- IC50 (K562): > 100 µM
- IC50 (SNU886): 75.2 µM
- IC50 (JHH4): > 100 µM
- IC50 (DLD1): > 100 µM
